Reference: PMC9697831 (Journal of Fungi, 2022)
Positions of bridges follow the written chain, without caps; N, C: chain ends. No end group written: not given here.

Experiments:
hKv1.3 [1] = biological target: T1, hKv1.3 (Homo sapiens, UniProt P22001); assay: Whole-cell patch clamp of hKv1.3 currents in activated human T lymphocytes; format: cell-based; conditions: for time needed to reach equilibrium (steady-state) block of hKv1.3: 1 nM; for Hill coefficient (H): Hill equation fit of concentration-response on hKv1.3, n = 3-5; for Activity on hKv1.3: RP-HPLC fraction of His-tagged recombinant peptide, patch clamp; for recovery from block on perfusion with toxin-free solution: washout
T1 construct: endogenous in cells
T1 sequence (P22001 whole entry, the tested form may be a part): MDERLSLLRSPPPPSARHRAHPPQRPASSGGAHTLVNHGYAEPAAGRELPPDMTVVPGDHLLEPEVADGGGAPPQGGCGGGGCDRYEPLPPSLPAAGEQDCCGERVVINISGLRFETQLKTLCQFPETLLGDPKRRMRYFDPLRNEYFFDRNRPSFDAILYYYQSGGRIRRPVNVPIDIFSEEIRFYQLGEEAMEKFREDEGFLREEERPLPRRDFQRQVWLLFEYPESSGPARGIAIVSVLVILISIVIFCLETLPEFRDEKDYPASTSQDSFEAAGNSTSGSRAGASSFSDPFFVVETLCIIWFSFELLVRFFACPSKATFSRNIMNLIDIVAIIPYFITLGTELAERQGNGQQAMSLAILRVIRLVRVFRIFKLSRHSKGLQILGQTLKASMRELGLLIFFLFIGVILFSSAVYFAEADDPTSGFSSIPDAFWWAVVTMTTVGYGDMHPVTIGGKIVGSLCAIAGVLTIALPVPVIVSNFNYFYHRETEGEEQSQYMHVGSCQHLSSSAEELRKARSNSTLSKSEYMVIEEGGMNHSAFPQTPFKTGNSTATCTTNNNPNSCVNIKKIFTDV
Method: Human venous blood from anonymized healthy donors was obtained from a blood bank. Peripheral blood mononuclear cells (PBMCs) were isolated by density gradient centrifugation using Histopaque1077 (Cat. No 10771). The obtained cells were resuspended in RPMI 1640 medium containing 10% fetal calf serum, 100 μg/mL penicillin, 100 μg/mL streptomycin, and […], seeded at a density of 5 × 10^5 cells per ml in a 24-well culture plate and grown in a 5% CO2 incubator at 37 °C for 2–5 days. Phytohemagglutinin A (Cat. No. L1668) was added to the medium at concentrations of 5, 7, and 10 μg/mL to increase the voltage-gated potassium ion channel expression.
Electrophysiological measurements were performed by using the patch clamp technique in a whole-cell configuration on voltage-clamped cells using the Axon Multiclamp 700B amplifier and the Axon Digidata1440 digitizer; the Clampex 10.7 software was used for data acquisition (all from Molecular Devices, Sunnyvale, CA, USA). Micropipettes were pulled from GC150F-15 borosilicate capillaries (Harvard Apparatus Kent, Edenbridge, UK), resulting in 3–4 MΩ resistance in the bath solution. The extracellular solution (bath solution) contained 145 mM NaCl, 5 mM KCl, 1 mM MgCl2, 2.5 mM CaCl2, 5.5 mM glucose, and 10 mM HEPES, with a pH of 7.35 and an osmolarity between 302 and 308 mOsM/L. The pipette filling solution (intracellular) consisted of 140 mM KF, 2 mM MgCl2, 1 mM CaCl2, 10 mM HEPES, and 11 mM EGTA, with a pH of 7.22 and an osmolarity of 295 mOsM/L. When the toxins were dissolved in bath solution at different molar concentrations, they were supplemented with 0.1 mg/mL bovine serum albumin (BSA). To record hKv1.3 in activated human T lymphocytes (Kv1.3 overexpression), 15 ms-long depolarizing pulses were applied at +50 mV from a holding potential of −120 mV every 15 s. Current traces were low-pass filtered by the analog four-pole Bessel filters of the amplifiers, and the sampling frequency was set at 20 kHz, which was at least twice that of the filter cutoff frequency. The control and test solutions were perfused into the cell through a gravity flow perfusion system. The excess bath solution was constantly removed with vacuum suction.
The effect of the toxin at a given molar concentration was calculated as the remaining current fraction (RCF = I/I0, where I0 is the peak current in the absence of the toxin and I is the peak current at the equilibrium block at a given toxin concentration). The data points on the dose-response curves represent the mean of 3–5 individual measurements. The data points were fitted with the Hill equation, RCF=KdH/KdH+toxin^H where [toxin] is the concentration of the toxin and H is the Hill coefficient. The best fit curve gave the Kd value of a given toxin.

Kv1.3 channel = conditions: ref 11 (charybdotoxin), 12 (noxiustoxin), 13 (Vm24), 14 (ShK), 15 (margatoxin), 16 (HsTx1); cited from earlier work
Source text: Voltage-gated potassium (Kv) channels regulate the selective efflux of K^+ through the plasma membrane, thereby shaping the action potentials in excitable cells and regulating many other cellular functions in non-excitable cells. The Kv channel family includes 12 subfamilies (Kv1-Kv12). The Kv1 (Shaker) subfamily consists of eight voltage-gated potassium channels belonging to the delayed rectifier class (Kv1.1–Kv1.8). Of this Kv subfamily, the Kv1.3 channel is mainly expressed in neurons and immune cells, and therefore, channel inhibition in these cells may be useful in the t ...

rat Kv1.3 (rKv1.3) = conditions: rKv1.3 expressed in oocytes; cited from earlier work
Source text: Anuroctoxin (AnTx, α-KTx 6.12) is a small peptide consisting of 35 amino acids (4109 Da). […] Ts6 (α-KTx 12.1) consists of 40 amino acids with a molecular mass of 4506 Da. Ts6 was isolated from the venom of the scorpion Tytyus serrulatus and inhibits hKv1. ... || In the preliminary experiments to evaluate the biological activity of the recombinant toxins, peptide concentrations slightly higher than the reported Kd values for the native toxins were used.

hKv1.3 [2] = biological target: T1, hKv1.3; conditions: 100 nM, hKv1.3 expressed in CHO cells; cited from earlier work
Method: As mentioned earlier, the Kd values of Tag-Vm24 and Untag-AnTx were very similar to those reported for the native toxins. […] The Kd value of the native Ts6 was determined using Xenopus oocytes expressing rat Kv1.3 (rKv1.3). […] Differences in the type of cell expression system as well as the use of a channel from di ...

Molecule	Hill coefficient (H) (hKv1.3 [1])	Activity on hKv1.3 (hKv1.3 [1])	recovery from block on perfusion with toxin-free solution (hKv1.3 [1])	concentration range in which the toxin blocks the Kv1.3 channel (Kv1.3 channel)	other results
CSCC[C@@H]1NC(=O)[C@@H]2CSSC[C@H](NC(=O)[C@H](CCC(=O)O)NC(=O)[C@H](CCCCN)NC(=O)[C@H](CCC(N)=O)NC(=O)[C@H](CCCCN)NC(=O)[C@H](CC(=O)O)NC(=O)[C@H](CC(=O)O)NC(=O)[C@H](CC(=O)O)NC(=O)[C@H](CC(=O)O)NC(=O)[C@H](Cc3c[nH]cn3)NC(=O)[C@H](Cc3c[nH]cn3)NC(=O)[C@H](Cc3c[nH]cn3)NC(=O)[C@H](Cc3c[nH]cn3)NC(=O)[C@H](Cc3c[nH]cn3)NC(=O)[C@H](Cc3c[nH]cn3)NC(=O)[C@H](CCC(N)=O)NC(=O)[C@H](CC(C)C)NC(=O)[C@H](Cc3ccccc3)NC(=O)[C@@H](N)CCC(=O)O)C(=O)N[C@@H]([C@@H](C)O)C(=O)NCC(=O)N3CCC[C@H]3C(=O)N[C@@H](CCC(N)=O)C(=O)N[C@@H](Cc3c[nH]cn3)C(=O)N[C@H]3CSSC[C@H](NC(=O)[C@H](CCCCN)NC(=O)[C@H](CCCNC(=N)N)NC(=O)[C@H](CC(N)=O)NC1=O)C(=O)N[C@@H](CCCCN)C(=O)N[C@H]1CSSC[C@H](NC(=O)[C@H](Cc4ccccc4)NC(=O)[C@H](CC(N)=O)NC(=O)[C@H]([C@@H](C)O)NC3=O)C(=O)N[C@@H](CCCNC(=N)N)C(=O)N[C@@H](CCCCN)C(=O)N[C@@H](CC(N)=O)C(=O)N[C@@H](CCCCN)C(=O)N[C@@H](CSSC[C@@H](C(=O)N[C@@H](CCCCN)C(=O)O)NC(=O)[C@H](CC(N)=O)NC(=O)[C@H](Cc3ccccc3)NC1=O)C(=O)N[C@@H]([C@@H](C)O)C(=O)N[C@@H](Cc1c[nH]cn1)C(=O)NCC(=O)N[C@@H](CCCCN)C(=O)N2 [Tag-AnTx]	0.91	Positive	full recovery		time needed to reach equilibrium (steady-state) block of hKv1.3 (hKv1.3 [1]): ~ 2.5 min
CSCC[C@@H]1NC(=O)[C@@H]2CSSC[C@H](NC(=O)[C@H](CCC(=O)O)NC(=O)[C@H](CCCCN)NC(=O)[C@@H](N)CCC(N)=O)C(=O)N[C@@H]([C@@H](C)O)C(=O)NCC(=O)N3CCC[C@H]3C(=O)N[C@@H](CCC(N)=O)C(=O)N[C@@H](Cc3c[nH]cn3)C(=O)N[C@H]3CSSC[C@H](NC(=O)[C@H](CCCCN)NC(=O)[C@H](CCCNC(=N)N)NC(=O)[C@H](CC(N)=O)NC1=O)C(=O)N[C@@H](CCCCN)C(=O)N[C@H]1CSSC[C@H](NC(=O)[C@H](Cc4ccccc4)NC(=O)[C@H](CC(N)=O)NC(=O)[C@H]([C@@H](C)O)NC3=O)C(=O)N[C@@H](CCCNC(=N)N)C(=O)N[C@@H](CCCCN)C(=O)N[C@@H](CC(N)=O)C(=O)N[C@@H](CCCCN)C(=O)N[C@@H](CSSC[C@@H](C(=O)N[C@@H](CCCCN)C(=O)O)NC(=O)[C@H](CC(N)=O)NC(=O)[C@H](Cc3ccccc3)NC1=O)C(=O)N[C@@H]([C@@H](C)O)C(=O)N[C@@H](Cc1c[nH]cn1)C(=O)NCC(=O)N[C@@H](CCCCN)C(=O)N2 [Untag-AnTx]					Kd (hKv1.3 [1]; whole-cell patch clamp, activated human peripheral T lymphocytes, 15 ms pulses to +50 mV from -120 mV every 15 s, Hill equation fitted to remaining current fraction, mean ± SEM, n = 3-5, read-out: Kd for block of hKv1.3): 0.73 nM
EFHHHHHHDDDDKWCSTCLDLACGASRECYDPCFKAFGRAHGKCMNNKCRCYT (disulfide 15-18, 23-44, 29-49, 33-51) [Tag-Ts6]	1.06	Positive	complete recovery		block of more than 50% of the Kv1.3 current (hKv1.3 [1]; 100 nM, 6x-His-tagged peptide): could not be replicated; time of onset of equilibrium block and complete recovery of peak current (hKv1.3 [1]; progressively increasing concentrations): a few seconds
EFLQHHHHHHIEGRAAAISCVGSPECPPKCRAQGCKNGKCMNRKCKCYYC (disulfide 20-40, 26-45, 30-47, 35-50) [Tag-Vm24]	0.92	Positive	not reversible		time needed to achieve equilibrium block of hKv1.3 (hKv1.3 [1]; 10 pM): ~ 25 min; time needed to reach equilibrium (steady-state) block of hKv1.3 (hKv1.3 [1]): ~ 5 min
charybdotoxin				nanomolar range	
margatoxin (TIINVKCTSPKQCLPPCKAQFGQSAGAKCMNGKCKCYPH; UniProt P40755 1-39, looked up)				picomolar range	
maurotoxin (VSCTGSKDCYAPCRKQTGCPNAKCINKSCKCYGC; UniProt P80719 1-34, looked up)					Kd (rat Kv1.3 (rKv1.3)): 180 nM; sensitivity of hKv1.3 to the toxin (hKv1.3 [2]): almost insensitive
noxiustoxin: toxin that blocks the Kv1.3 channel (TIINVKCTSPKQCSKPCKELYGSSAGAKCMNGKCKCYNN; UniProt P08815 1-39, looked up)				nanomolar range	
